The subject of this experiment is P388 leukemia ip, CD2F1 mice, survival T/C. The experiment can be described thus: NCI In Vivo Anticancer Drug Screen. Data for tumor model P388 Leukemia (intraperitoneal) in CD2F1 (CDF1) mice. To be noted: endpoint: median survival time, higher = longer survival. The procedure, abridged: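 Mice carrying the transplanted tumor received test compound or vehicle. Survival was recorded in each group, and the value is the treated-group measurement divided by that of the vehicle-treated control group.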

Setting [1] is: dose: 100.0 mg/kg/injection, schedule: Q01DX009 (ip), vehicle: saline with Tween-80.
[2] abbreviates: dose: 200.0 mg/kg/injection, schedule: Q01DX009 (ip), vehicle: saline with Tween-80.
The mark [3] stands for this setting: dose: 10.0 mg/kg/injection, schedule: Q01DX009 (ip), vehicle: saline with Tween-80.
The mark [4] stands for this setting: dose: 50.0 mg/kg/injection, schedule: Q01DX009 (ip), vehicle: Klucel (hydroxypropylcellulose) (HPC).
[5] abbreviates: dose: 100.0 mg/kg/injection, schedule: Q01DX009 (ip), vehicle: Klucel (hydroxypropylcellulose) (HPC).
Setting [6] is: dose: 200.0 mg/kg/injection, schedule: Q01DX009 (ip), vehicle: Klucel (hydroxypropylcellulose) (HPC).
Setting [7] is: dose: 50.0 mg/kg/injection, schedule: Q01DX005 (ip), vehicle: Klucel (hydroxypropylcellulose) (HPC).
The mark [8] stands for this setting: dose: 100.0 mg/kg/injection, schedule: Q01DX005 (ip), vehicle: Klucel (hydroxypropylcellulose) (HPC).
Where [9] appears, read: dose: 100.0 mg/kg/injection, schedule: Q04DX003 (ip), vehicle: saline.
Where [10] appears, read: dose: 200.0 mg/kg/injection, schedule: Q04DX003 (ip), vehicle: saline.
The mark [11] stands for this setting: dose: 400.0 mg/kg/injection, schedule: Q04DX003 (ip), vehicle: saline.

SMILES strings stand for the structures. Values joined by “and” are separate entries in the source; they are usually repeats but may differ in a detail not shown here. Identical values can stand only once. Inconclusive results and toxic doses are left out. Square brackets hold non-standard residues; d marks the D form. Peptide text beside a SMILES is read from it. * marks the point of attachment. Cbz = O=C(OCc1ccccc1)*; Nva = CCC[CH](N)C(=O)O

For `CC(Cl)CN=NNc1ccc(C#N)cc1` (configuration not stated), the T/C is 99 % of control (dose: 12.5 mg/kg/injection, schedule: Q01DX009 (ip), vehicle: distilled water + Tween-80); 100 % of control (dose: 25.0 mg/kg/injection, schedule: Q01DX009 (ip), vehicle: distilled water + Tween-80); 100 % of control (dose: 50.0 mg/kg/injection, schedule: Q01DX009 (ip), vehicle: distilled water + Tween-80); 104 % of control (dose: 100.0 mg/kg/injection, schedule: Q01DX009 (ip), vehicle: distilled water + Tween-80); 119 % of control (dose: 200.0 mg/kg/injection, schedule: Q01DX009 (ip), vehicle: distilled water + Tween-80).

For `CC(=O)CCC(=O)OC(C)(C)CN`, the T/C was 100 % of control under setting [1]; 100 % of control (dose: 100.0 mg/kg/injection, schedule: Q04DX003 (ip), vehicle: saline with Tween-80); 100 % of control under setting [2]; 100 % of control (dose: 200.0 mg/kg/injection, schedule: Q04DX003 (ip), vehicle: saline with Tween-80); 104 % of control (dose: 400.0 mg/kg/injection, schedule: Q01DX009 (ip), vehicle: saline with Tween-80); 104 % of control (dose: 400.0 mg/kg/injection, schedule: Q04DX003 (ip), vehicle: saline with Tween-80).

`C=C1C(=O)OC2/C=C(/C)C3CC(O)C(C)(CC(OC(=O)/C(C)=C/C)C12)O3` (configuration not stated): the T/C under setting [3] was 96 % of control and 105 % of control; the T/C (dose: 20.0 mg/kg/injection, schedule: Q01DX009 (ip), vehicle: saline with Tween-80) was 96 % of control and 107 % of control; the T/C (dose: 40.0 mg/kg/injection, schedule: Q01DX009 (ip), vehicle: saline with Tween-80) is 109 % of control and 119 % of control; the T/C (dose: 80.0 mg/kg/injection, schedule: Q01DX009 (ip), vehicle: saline with Tween-80) was 123 % of control and 117 % of control.

With `Oc1ccccc1N=Cc1cccs1`, the T/C reads like this: under setting [4], 109 % of control; under setting [5], 105 % of control; under setting [6], 124 % of control.

Turning to `CC1(C)CCC(C2=CC(=O)c3c(O)ccc(O)c3C2=O)O1` (configuration not stated), the T/C is, setting by setting: (dose: 3.12 mg/kg/injection, schedule: Q01DX005 (ip), vehicle: saline with Tween-80) 103 % of control; (dose: 6.25 mg/kg/injection, schedule: Q01DX005 (ip), vehicle: saline with Tween-80) 108 % of control; (dose: 12.5 mg/kg/injection, schedule: Q01DX005 (ip), vehicle: saline with Tween-80) 99 % of control.

With `O=C1CN(Cc2ccc3c(c2)OCO3)NO1`, the T/C runs as follows: (dose: 25.0 mg/kg/injection, schedule: Q01DX009 (ip), vehicle: saline with Tween-80) 111 % of control; (dose: 50.0 mg/kg/injection, schedule: Q01DX009 (ip), vehicle: saline with Tween-80) 104 % of control and 108 % of control; under setting [1], 101 % of control; under setting [2], 119 % of control and 86 % of control.

On to `COc1ccc(Cc2cc3c(cc2O)OCO3)cc1`, for which the T/C reads like this: (dose: 2.5 mg/kg/injection, schedule: Q01DX009 (ip), vehicle: saline with Tween-80) 99 % of control; (dose: 5.0 mg/kg/injection, schedule: Q01DX009 (ip), vehicle: saline with Tween-80) 101 % of control; under setting [3], 101 % of control; (dose: 15.0 mg/kg/injection, schedule: Q01DX005 (ip), vehicle: saline with Tween-80) 107 % of control; (dose: 31.0 mg/kg/injection, schedule: Q01DX005 (ip), vehicle: saline with Tween-80) 102 % of control; (dose: 62.5 mg/kg/injection, schedule: Q01DX005 (ip), vehicle: saline with Tween-80) 106 % of control. In addition, the T/C reads like this: (dose: 125.0 mg/kg/injection, schedule: Q01DX005 (ip), vehicle: saline with Tween-80) 100 % of control; (dose: 250.0 mg/kg/injection, schedule: Q01DX005 (ip), vehicle: saline with Tween-80) 102 % of control.

With `[NH-]C(Cc1cnc[n-]1)C(=O)O.[NH-]C(Cc1cnc[n-]1)C(=O)O.[O]=[Mo]1[O][Mo](=[O])[O]1` (configuration not stated), the T/C is 99 % of control (dose: 50.0 mg/kg/injection, schedule: Q01DX009 (ip), vehicle: suspension in saline); 99 % of control (dose: 100.0 mg/kg/injection, schedule: Q01DX009 (ip), vehicle: suspension in saline); 99 % of control (dose: 200.0 mg/kg/injection, schedule: Q01DX009 (ip), vehicle: suspension in saline).

Turning to `CCCC(NC(=O)OCc1ccccc1)C(=O)NC(C(=O)O)C(C)C` (configuration not stated) (Cbz-[Nva]-Val-OH; configuration not given here), the T/C runs as follows: under setting [7], 94 % of control; under setting [8], 92 % of control; (dose: 200.0 mg/kg/injection, schedule: Q01DX005 (ip), vehicle: Klucel (hydroxypropylcellulose) (HPC)) 96 % of control.

In the case of `CN(C)Cc1onc(-c2c(Cl)cccc2Cl)c1C(=O)O`, the T/C was 103 % of control (dose: 60.0 mg/kg/injection, schedule: Q01DX005 (ip), vehicle: saline with Tween-80) and 95 % of control (dose: 120.0 mg/kg/injection, schedule: Q01DX005 (ip), vehicle: saline with Tween-80).

Take `CN(/C=C/C=C/C=N/O)c1ccccc1`: the T/C is, setting by setting: (dose: 50.0 mg/kg/injection, schedule: Q01DX001 (ip), vehicle: Klucel (hydroxypropylcellulose) (HPC)) 104 % of control; (dose: 100.0 mg/kg/injection, schedule: Q01DX001 (ip), vehicle: Klucel (hydroxypropylcellulose) (HPC)) 100 % of control; (dose: 200.0 mg/kg/injection, schedule: Q01DX001 (ip), vehicle: Klucel (hydroxypropylcellulose) (HPC)) 99 % of control.

As to `CC(=O)NC(Cc1cccc(F)c1)C(=O)O` (configuration not stated), the T/C is, setting by setting: (dose: 1.56 mg/kg/injection, schedule: Q01DX009 (ip), vehicle: saline) 111 % of control; (dose: 3.12 mg/kg/injection, schedule: Q01DX009 (ip), vehicle: saline) 106 % of control; (dose: 6.25 mg/kg/injection, schedule: Q01DX009 (ip), vehicle: saline) 107 % of control and 88 % of control.

As for `NC(CCC(N)C(=O)O)C(=O)O` (configuration not stated), the T/C reads like this: (dose: 25.0 mg/kg/injection, schedule: Q01DX009 (ip), vehicle: Klucel (hydroxypropylcellulose) (HPC)) 97 % of control; under setting [4], 93 % of control; under setting [5], 87 % of control; under setting [6], 86 % of control.

`CCC1C(C#N)C(=O)NC(=O)C1C#N` (configuration not stated): the T/C was 100 % of control under setting [4], 95 % of control under setting [5] and 95 % of control under setting [6].

As for `c1c[nH]c2c3ccncc3c3ncnc3c2c1`, the T/C is, setting by setting: under setting [7], 97 % of control; under setting [8], 88 % of control.

`CC(=O)/C(=C\c1ccc(Cl)c(Cl)c1)C(=O)CCN(C)C`: the T/C is 110 % of control and 117 % of control (dose: 12.5 mg/kg/injection, schedule: Q01DX005 (ip), vehicle: saline); 117 % of control (dose: 25.0 mg/kg/injection, schedule: Q01DX005 (ip), vehicle: saline with Tween-80); 100 % of control and 107 % of control (dose: 25.0 mg/kg/injection, schedule: Q01DX005 (ip), vehicle: saline); 110 % of control and 111 % of control (dose: 50.0 mg/kg/injection, schedule: Q01DX005 (ip), vehicle: saline); 151 % of control (dose: 100.0 mg/kg/injection, schedule: Q01DX005 (ip), vehicle: saline with Tween-80).

On to `CC(=O)NCc1ccccc1N1CCCC1`, for which the T/C under setting [9] is 101 % of control, the T/C under setting [10] was 106 % of control and the T/C under setting [11] was 101 % of control.

In the case of `COc1cc(C[C@H](CO)[C@H](CO)Cc2ccc3c(c2)OCO3)cc(OC)c1OC`, the T/C was 100 % of control (dose: 12.5 mg/kg/injection, schedule: Q04DX002 (ip), vehicle: acetone); 102 % of control (dose: 25.0 mg/kg/injection, schedule: Q04DX002 (ip), vehicle: acetone); 103 % of control (dose: 50.0 mg/kg/injection, schedule: Q04DX002 (ip), vehicle: acetone).

On to `CNC1CC(C)(O)Cc2cc3c(c(O)c21)C(=O)c1c(O)cc2c(c1C3=O)OC1OC2(C)C(O)C(N(C)C)C1O` (configuration not stated), for which the T/C is, setting by setting: (dose: 12.5 mg/kg/injection, schedule: Q01DX009 (ip), vehicle: other) 153 % of control; (dose: 25.0 mg/kg/injection, schedule: Q01DX009 (ip), vehicle: other) 158 % of control.

In the case of `Oc1ccccc1-c1cc(-c2ccccc2)nc(NCCCCCCCCNc2nc(-c3ccccc3)cc(-c3ccccc3O)n2)n1`, the T/C under setting [9] is 92 % of control, the T/C under setting [10] is 94 % of control and the T/C under setting [11] is 88 % of control.

The record behind these values is PubChem BioAssay AID330 (DTP/NCI, 2004).
